In patent US11021711B2, “Genetic variations associated with drug resistance” (GENENTECH, Inc., priority 2008, dated 2021):
Like-named read-outs stand apart in the source and are kept apart here. Blank lines part the entries; values can stand above or below the compound they belong to. Square brackets hold non-standard residues; d marks the D form. Peptide text beside a SMILES is read from it. * marks the point of attachment. Dolaproine = CO[C@@H]([C@@H]1CCCN1)[C@@H](C)C(=O)O; Dil = CC[C@H](C)[C@H](NC)[C@@H](CC(=O)O)OC; X1 = C[C@@H](N*)[C@@H](O)c1ccccc1; NMeV = CN[C@H](C(=O)O)C(C)C

Tests used:
[1] = test system: ABCC3-overexpressing EVSA-T cells; test: ATP-based luminescence viability assay, ABCC3-overexpressing EVSA-T clones; format: cell-based, human; details: for inhibition of cell growth compared to vector-alone control stable cell line: all three overexpressing cell lines, ATP-based luminescence assay (FIG. 5); for EC50: three day assay, read-out: EC50 (concentration that resulted in half-maximal response)
Text: (§1) The control cell line in FIG. 5 is in fact a clone of EVSA-T derived after transfection with an empty vector and in the particular experiment shown achieved an IC50.
(§2) For ABCC3 overexpression experiments a full length ABCC3 cDNA cloned in the CMV promoter containing vector pCMV5 (Invitrogen, Carlsbad, Calif.) was verified by sequencing the entire coding sequence. The construct was transfected into EVSA-T cells and stable clones were selected by growth in lmg/ml geneticin (Invitrogen Carlsbad, Calif.). Overexpression of ABCC3 in stable clones was confirmed by qRT-PCR on cDNA derived from lines containing pCMV5-ABCC3, pCMV5 vector alone, or the parental EVSA-T strain. All stable cell lines described in this report were determined in qRT-PCR experiments to express at least 25-35× more ABCC3 transcript than vector control lines or the parental cell line.
(§3) Three independently derived lines were confirmed to overexpress ABCC3 transcripts and screened for in vitro sensitivity to paclitaxel and MMAE using an ATP-based luminescence assay. […] The EC50 for the vector control treated with paclitaxel was 0.2 nM while the EC50 values for the ABCC3-expressing lines were 5 nM, 10 nM, and 80 nM, respectively.
EVSA-T cells were stably transfected with an ABCC3 containing plasmid where ABCC3 is expressed at high levels from a cytomegalovirus (CMV) promoter. Overexpression of ABCC3 was confirmed by qRT-PCR.

[2] = test system: EFM-192A cells; test: Mitotic index (phospho histone H3) after ABCC3 or control siRNA, EFM-192A; format: cell-based, human; details: for sensitivity (mitotic response) of ABCC3 siRNA transfected cells vs control siRNA (NTC) transfected cells: EFM-192A cells
Protocol: High content screening assays were carried out on an Arrayscan VTI (Cellomics Inc, Pittsburgh, Pa.). Cells were transfected in 96 well format using siRNA “Smartpool” oligonucleotides purchased from Dharmacon Inc and Oligofectamine transfection reagents. To prioritize genes for functional studies, 2-sided Wilcoxon rank sum tests using the R programming language (http://www.r-project.org) were done to identify genes with a significant difference in gene expression in cell lines with more than 4 copies compared to those with less than 4 copies of the 17q21.3 amplicon. This analysis combined with availability of reagents for RNAi experiments led to the selection of the following 24 genes for functional studies in the EFM-192A cell line: ABCC3, COL1A1, CROP, EAP, EPN3, FLJ13855, F1120920, HOXB7, LOC201191, ITGB3, KIAA0924, KPNB1, LOC400604, LOC81558, MGC11242, MGC15396, NDP52, PDK2, PHB, PP1R9B, SLC35B1, SPOP, TOB1, WNT3. Follow-up studies with ABCC3 siRNA were conducted in the additional cell lines ZR75-30, MDAMB-453 and HCC-1428. […] After 48 hours or 72 hours incubation at 37 C, cells were fixed in 3.7% formaldehyde and permeabilized in 0.1% Triton X-100, followed by labeling with a 1:500 dilution of anti-phospho histone H3 (pH3, Upstate) and subsequent 1:250 dilution of Alexa-fluor 488 (Molecular probes) Goat anti-rabbit secondary antibody. Cells were counterstained with Hoechst-33258 to allow identification of nuclei and the percentage of cells positive for nuclear pH3 immunofluorescence, also known as the Mitotic Index (30), was then quantitated for at least 1000 cells per well using Cellomics Target Activation software.
(§4) Phosphorylation at Ser10 of histone H3 is tightly correlated with chromosome condensation during M phase, and the percentage of cells that are positive for pH3 staining, or mitotic index, can be determined through an immunofluorescence assay.

[3] = test system: EFM192A; test: Celltiter-Glo Luminescent Cell Viability Assay, EFM192A; format: cell-based, human; details: 72 hours
Protocol: (§5) For MMAE and paclitaxel IC50 determination, cells were plated in quadruplicate at a density of 3000 cells per well in 384-well plates in normal growth medium and allowed to adhere overnight. Paclitaxel (Sigma) or MMAE (Seattle Genetics, Seattle, Wash.) were added in 10 concentrations based on a three-fold dilution series (1 μmol/L maximal paclitaxel or 0.1 μmol/L maximal for MMAE).
(§6) Cell viability was measured 72 hours later using the Celltiter-Glo Luminescent Cell Viability Assay (Promega, Madison, Wis.). The concentration of drug resulting in the 50% inhibition of cell viability (IC50) was calculated from a four-parameter curve analysis (XLfit, 1DSS software) and was determined from a minimum of three experiments. […] FIG. 6 provides examples of representative cell viability experiments for six cell lines. Cell lines EFM192A, NDAMB361, and BT474 were classified as resistant to each agent in the bioinformatic analysis. AU565, EFM19, and MDAMB468 were classified as sensitive. IC50 values from fitted curves are shown in the charts to the right of each graph.

[4] = test system: NDAMB361; test: Celltiter-Glo Luminescent Cell Viability Assay, NDAMB361; format: cell-based, human; details: NDAMB361, 72 hours
Protocol: as §5, §6

[5] = test system: EVSA-T cells (empty vector control clone); test: ATP-based luminescence viability assay, EVSA-T vector control line; format: cell-based, human; details: three day assay, read-out: EC50 (concentration that resulted in half-maximal response)
Text: as §1, §2, §3

[6] = test system: BT474; test: Celltiter-Glo Luminescent Cell Viability Assay, BT474; format: cell-based, human; details: BT474, 72 hours
Protocol: as §5, §6

[7] = test system: EFM19; test: Celltiter-Glo Luminescent Cell Viability Assay, EFM19; format: cell-based; details: Homo sapiens, EFM-19; EFM19, 72 hours; read-out: classification in the bioinformatic analysis (IC50 cell viability), paclitaxel
Protocol: as §5, §6

[8] = test system: HCC-1428; test: Mitotic index (phospho histone H3) after ABCC3 or control siRNA, HCC-1428; format: cell-based, human; details: HCC-1428 (non-amplified), drug-treated cells
Protocol: (§7) High content screening assays were carried out on an Arrayscan VTI (Cellomics Inc, Pittsburgh, Pa.). Cells were transfected in 96 well format using siRNA “Smartpool” oligonucleotides purchased from Dharmacon Inc and Oligofectamine transfection reagents. To prioritize genes for functional studies, 2-sided Wilcoxon rank sum tests using the R programming language (http://www.r-project.org) were done to identify genes with a significant difference in gene expression in cell lines with more than 4 copies compared to those with less than 4 copies of the 17q21.3 amplicon. […] Cells were counterstained with Hoechst-33258 to allow identification of nuclei and the percentage of cells positive for nuclear pH3 immunofluorescence, also known as the Mitotic Index (30), was then quantitated for at least 1000 cells per well using Cellomics Target Activation software.
as §4, with “An RNA interference strategy was used to identify the gene responsible for mediating resistance to taxanes and auristatins in amplified cell lines. […] Phosphorylation” for “Phosphorylation”, “assay. […]” for “assay.”

[9] = test system: AU565; test: Celltiter-Glo Luminescent Cell Viability Assay, AU565; format: cell-based; details: Homo sapiens; AU565, 72 hours; read-out: classification in the bioinformatic analysis (IC50 cell viability), paclitaxel
Protocol: as §5, §6

[10] = test system: MDAMB468; test: Celltiter-Glo Luminescent Cell Viability Assay, MDAMB468; format: cell-based; details: Homo sapiens, MDA-MB-468; MDAMB468, 72 hours; read-out: classification in the bioinformatic analysis (IC50 cell viability), paclitaxel
Protocol: as §5, §6

[11] = test system: ZR75-30; test: Mitotic index (phospho histone H3) after ABCC3 or control siRNA, ZR75-30; format: cell-based, human; details: ZR75-30 (ABCC3 amplified), drug-treated cells
Protocol: as §7
as §4, with “An RNA interference strategy was used to identify the gene responsible for mediating resistance to taxanes and auristatins in amplified cell lines. […] Phosphorylation” for “Phosphorylation”, “assay. […]” for “assay.”

[12] = test system: MDA-MB-453; test: Mitotic index (phospho histone H3) after ABCC3 or control siRNA, MDA-MB-453; format: cell-based, human; details: MDA-MB-453 (non-amplified), drug-treated cells
Protocol: as §7
as §4, with “An RNA interference strategy was used to identify the gene responsible for mediating resistance to taxanes and auristatins in amplified cell lines. […] Phosphorylation” for “Phosphorylation”, “assay. […]” for “assay.”

[13] = test system: HER2-positive metastatic breast cancer
Protocol: ABCC3 FISH analysis was performed on samples obtained from the T-DM1 Phase II (TDM4258G) trial to explore the effect of ABCC3 amplification on T-DM1 activity in HER2 amplified breast tumors. The TDM4258G trial is a multi-institutional, open-label, single-arm, Phase II study of T-DM1 administered by IV infusion to patients with HER2-positive metastatic breast cancer. The patients in the trial had shown prior progression on HER2-directed therapy. Formalin Fixed Paraffin Embedded (FFPE) archival tumor tissue samples from the clinical trial was obtained from the clinical investigation sites with appropriate IRB approval and patient consent.
The FISH assay was performed on the clinical trial samples as described in Example 1. […] Those samples with ABCC3/CEP17 ratios of 1.8 and above are considered to have ABCC3 amplification.

[14] = read-out: classification in the bioinformatic analysis (IC50 cell viability), MMAE

Compound: COc1cc2cc(c1Cl)N(C)C(=O)C[C@H](OC(=O)[C@H](C)N(C)C(=O)CCS)[C@]1(C)O[C@H]1[C@H](C)[C@@H]1C[C@@](O)(NC(=O)O1)[C@H](OC)/C=C/C=C(\C)C2 [DM1]
- sensitivity to free DM1 vs control cell line ([1]; three ABCC3 overexpressing clones, standard cell viability assay (FIG. 7)): more resistant
- sensitivity (mitotic response) of ABCC3 siRNA transfected cells vs control siRNA (NTC) transfected cells [2]: more sensitive

Compound: CC[C@H](C)[C@@H]([C@@H](CC(=O)N1CCC[C@H]1[C@H](OC)[C@@H](C)C(=O)N[C@H](C)[C@@H](O)c1ccccc1)OC)N(C)C(=O)[C@@H](NC(=O)[C@@H](NC)C(C)C)C(C)C [MMAE, monomethyl auristatin E] (H-[NMeV]V[Dil][Dolaproine]-X1)
- IC50 [3, 14]: > 100 nM
- IC50 [4, 14]: > 100 nM
- inhibition of cell growth compared to vector-alone control stable cell line [1]: markedly less inhibition of cell growth
- EC50 ([1]; first ABCC3-expressing EVSA-T line): 1.5 nM
- EC50 ([1]; second ABCC3-expressing EVSA-T line): 12 nM
- EC50 ([1]; third ABCC3-expressing EVSA-T line): 90 nM
- EC50 [5]: 0.05 nM
- IC50 [6, 14]: > 100 nM

- IC50 [10]: < 10 nM
- IC50 ([6]; Homo sapiens, BT-474, read-out: classification in the bioinformatic analysis (IC50 cell viability), paclitaxel): > 1000 nM
Compound: CC(=O)O[C@H]1C(=O)[C@@]2(C)[C@H]([C@H](OC(=O)c3ccccc3)[C@]3(O)C[C@H](OC(=O)[C@H](O)[C@@H](NC(=O)c4ccccc4)c4ccccc4)C(C)=C1C3(C)C)[C@]1(OC(C)=O)CO[C@@H]1C[C@@H]2O [paclitaxel]
- IC50 ([3]; Homo sapiens, EFM-192A, read-out: classification in the bioinformatic analysis (IC50 cell viability), paclitaxel): > 1000 nM
- IC50 ([4]; Homo sapiens, read-out: classification in the bioinformatic analysis (IC50 cell viability), paclitaxel): > 1000 nM
- IC50 [7]: < 10 nM
- change in mitotic index, ABCC3 RNAi relative to non-targeting control siRNA [8]: did not appreciably alter
- IC50 [9]: < 10 nM
- EC50 ([1]; Homo sapiens, EVSA-T, 72 h, first ABCC3-expressing EVSA-T line): 5 nM
- EC50 ([1]; Homo sapiens, EVSA-T, 72 h, second ABCC3-expressing EVSA-T line): 10 nM
- EC50 ([1]; Homo sapiens, EVSA-T, 72 h, third ABCC3-expressing EVSA-T line): 80 nM
- inhibition of cell growth compared to vector-alone control stable cell line [1]: markedly less inhibition of cell growth
- change in mitotic index, ABCC3 RNAi relative to non-targeting control siRNA ([2]; EFM-192A (ABCC3 amplified), drug-treated cells): two to three fold increase
- change in mitotic index, ABCC3 RNAi relative to non-targeting control siRNA [11]: two to three fold increase
- EC50 ([5]; Homo sapiens, 72 h): 0.2 nM
- change in mitotic index, ABCC3 RNAi relative to non-targeting control siRNA [12]: did not appreciably alter

Compound: Trastuzumab-MCC-DM1 [T-DM1]
- sensitivity (mitotic response) of ABCC3 siRNA transfected cells vs control siRNA (NTC) transfected cells [2]: more sensitive
- patients who responded to treatment ([13]; samples with amplification of ABCC3 (ABCC3/CEP17 ratio 1.8 and above), 2/5, IV infusion): 40%
- patients who responded to treatment ([13]; samples with no amplification of ABCC3 (ABCC3/CEP17 below 1.8), 12/15, IV infusion): 80%
